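Step 1: Grow cells in 96-well plates. Step 2: Expose to compound for 48 hours at 5 concentrations. Step 3: Interpolate endpoints linearly; if unreached, use highest concentration. GI50: concentration for 50% inhibition of growth. TGI marks complete inhibition of growth.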

Experimental findings from PubChem BioAssay (NCI) are described below.

Test systems include NCI-H522 lung; HCT-116 colon; NCI-H460 lung; LOX IMVI melanoma; SNB-19 CNS; K-562 leukemia; HOP-62 NSCLC; A549 NSCLC.
Experiment in all cases: inhibition of tumour cell growth, NCI panel, 48 h

Consider `CC(/C=C/C(=O)c1sc(-n2nc(-c3ccccc3)cc2-c2ccccc2)nc1C)=C\c1ccccc1`, for which the TGI in the test with NCI-H522 lung, with HCT-116 colon, in the test with NCI-H460 lung, in the test on LOX IMVI melanoma, in the test with SNB-19 CNS and in the test on K-562 leukemia was over 100 µM each time. Further, the TGI in the test with HOP-62 NSCLC and in the test on A549 NSCLC was over 100 µM throughout. Moreover, in the test with HOP-62 NSCLC, the GI50 was over 100 µM.
For `CN(C)c1ncnc2c1Cc1ccccc1C(=O)N2C`, the TGI in the test on NCI-H522 lung, with HCT-116 colon, in the test with NCI-H460 lung, in the test on LOX IMVI melanoma, in the test on SNB-19 CNS and in the test with K-562 leukemia was over 100 µM each time. For the same compound, the TGI in the test on HOP-62 NSCLC and in the test with A549 NSCLC was over 100 µM each time.
As for `COc1ccc(/C=N/N=C(\N)NO)c(Cl)c1O`, the TGI was 42.1 µM with NCI-H522 lung; over 100 µM with HCT-116 colon; over 100 µM in the test with LOX IMVI melanoma; over 100 µM in the test with SNB-19 CNS; over 100 µM in the test with K-562 leukemia; 72.1 µM with HOP-62 NSCLC. In addition, the TGI in the test on A549 NSCLC was 49.6 µM.
As to `C=CCCOC(=O)CO[N+](=O)[O-]`, the TGI in the test on NCI-H522 lung, in the test on HCT-116 colon, in the test on NCI-H460 lung, in the test on LOX IMVI melanoma, with SNB-19 CNS and in the test on K-562 leukemia was over 100 µM in each case. Moreover, the TGI in the test with HOP-62 NSCLC and in the test on A549 NSCLC was over 100 µM each time.
With `COc1cc(Br)c(CC2(C#N)c3ccccc3C3C(N2C(=O)c2ccccc2)C3(Cl)Cl)cc1OC` (configuration not stated), the TGI in the test with NCI-H522 lung, in the test with HCT-116 colon, in the test with NCI-H460 lung, with LOX IMVI melanoma, in the test with SNB-19 CNS and in the test with K-562 leukemia was over 65.5 µM each time. Moreover, in the test on A549 NSCLC, the TGI was over 65.5 µM.
For `CC(=O)[O-].CC(=O)[O-].O=C(N/N=C/c1cc(Cl)cc(Cl)c1O)c1ccncc1.[Ni+2]`, the TGI in the test with NCI-H522 lung, with HCT-116 colon, in the test with NCI-H460 lung, with LOX IMVI melanoma, in the test on SNB-19 CNS and in the test with K-562 leukemia was over 100 µM throughout. For the same compound, the TGI in the test on HOP-62 NSCLC and in the test with A549 NSCLC was over 100 µM throughout.
Consider `COc1ccc(/C=C/C(=O)C(C)(C)CN2CCCCC2)cc1`, for which the TGI was 30 µM in the test with NCI-H522 lung; 30.8 µM in the test with HCT-116 colon; 43.3 µM in the test with NCI-H460 lung; 29.6 µM with LOX IMVI melanoma; over 100 µM with SNB-19 CNS; 65.2 µM in the test with K-562 leukemia. The TGI is over 100 µM in the test with HOP-62 NSCLC and 74.3 µM with A549 NSCLC.
Turning to `CCOC(=O)Cc1nc2ccccc2s1`, the TGI was 41.1 µM in the test on NCI-H522 lung; 39 µM in the test with HCT-116 colon; 39.6 µM in the test with NCI-H460 lung; 32.4 µM in the test on LOX IMVI melanoma; over 100 µM with SNB-19 CNS; 71.9 µM in the test with K-562 leukemia. Besides, the TGI came to 52 µM in the test with HOP-62 NSCLC and 54.2 µM in the test on A549 NSCLC.
`C[N+](C)(C)CC(=O)N/N=C(\CCC(=O)NCCc1ccccc1)CC(=O)c1ccccc1`: the TGI in the test with NCI-H522 lung, in the test on HCT-116 colon, with NCI-H460 lung, in the test on LOX IMVI melanoma, with SNB-19 CNS and in the test with K-562 leukemia was over 100 µM in each case. The TGI in the test with HOP-62 NSCLC and with A549 NSCLC was over 100 µM each time.
Turning to `N#CC(/C(=N\NC(=O)c1ccncc1)C(=O)Nc1ccc([N+](=O)[O-])cc1[N+](=O)[O-])c1nc(-c2ccc(Br)cc2)cs1` (configuration not stated), the TGI in the test with HCT-116 colon, in the test on NCI-H460 lung, in the test with LOX IMVI melanoma, with SNB-19 CNS, with K-562 leukemia and with HOP-62 NSCLC was over 100 µM each time. In the test on A549 NSCLC, this compound returned a TGI of over 100 µM.
With `c1ccc(N=c2snc3scc(-c4ccccc4)n23)cc1`, the TGI is 38.4 µM with NCI-H522 lung; over 100 µM with LOX IMVI melanoma; over 100 µM in the test on SNB-19 CNS; over 100 µM in the test with K-562 leukemia; over 100 µM with HOP-62 NSCLC; over 100 µM in the test on A549 NSCLC.
`CCSC(SCC)c1cc2c(cc1Br)OCO2`: the TGI was over 100 µM in the test on NCI-H522 lung; 82.6 µM in the test with HCT-116 colon; 49.4 µM in the test on NCI-H460 lung; 38 µM in the test with LOX IMVI melanoma; over 100 µM with SNB-19 CNS; 32.7 µM in the test on K-562 leukemia. Besides, the TGI in the test with HOP-62 NSCLC and in the test with A549 NSCLC was over 100 µM throughout.
Turning to `CSc1nc(NC2OCC(OC(C)=O)C(OC(C)=O)C2OC(C)=O)c(N=C(C)C(C)=O)c(=O)n1C` (configuration not stated), the TGI in the test with HCT-116 colon, in the test with NCI-H460 lung, in the test with LOX IMVI melanoma, in the test with SNB-19 CNS, in the test with K-562 leukemia and in the test with HOP-62 NSCLC was over 100 µM in each case. In the test on A549 NSCLC, this compound registered a TGI of over 100 µM.
In the case of `Cc1ccc2[nH]c3c(C)c4c(c(C)c3c2c1)CN(C)C=C4`, the TGI in the test with NCI-H522 lung was 1.38 µM; with HCT-116 colon, 10.6 µM; in the test on NCI-H460 lung, 12 µM; in the test with LOX IMVI melanoma it was 17 µM; in the test on SNB-19 CNS, 1.99 µM; in the test on K-562 leukemia, over 38.9 µM. The TGI with HOP-62 NSCLC was found to be 2.71 µM; with A549 NSCLC, 2.99 µM.
In the case of `Cc1c(-c2ccccc2)c(=O)oc2ccc(Cl)cc12`, the TGI in the test on NCI-H522 lung, in the test with HCT-116 colon, with NCI-H460 lung, in the test on LOX IMVI melanoma, with SNB-19 CNS and in the test with K-562 leukemia was over 100 µM throughout. Also, the TGI in the test on HOP-62 NSCLC and in the test on A549 NSCLC was over 100 µM throughout.
For `CC1CN(c2ccc(Cl)cc2)CC(C)(C)OC(=O)O1` (configuration not stated), the TGI in the test on NCI-H522 lung, in the test on HCT-116 colon, in the test with NCI-H460 lung, with LOX IMVI melanoma, in the test on SNB-19 CNS and in the test on K-562 leukemia was over 100 µM each time. For the same compound, the TGI with HOP-62 NSCLC and in the test on A549 NSCLC was over 100 µM each time.
Take `O=c1c(-c2ccccc2)c2oc(c1-c1ccccc1)CS(=O)(=O)CCC2`: the TGI in the test on NCI-H522 lung was 22.7 µM; with HCT-116 colon it was 26.3 µM; in the test with NCI-H460 lung it was over 100 µM; with LOX IMVI melanoma, 45.8 µM; in the test on SNB-19 CNS, over 100 µM; with K-562 leukemia, over 100 µM. Moreover, the TGI with HOP-62 NSCLC and in the test with A549 NSCLC was over 100 µM throughout.
`CCOC(=O)C[C@@H](C)[C@]1(C(=O)OC)CCCC1=O`: the TGI in the test with NCI-H522 lung was over 100 µM; in the test with HCT-116 colon, over 62.6 µM; in the test on NCI-H460 lung, over 100 µM; with LOX IMVI melanoma, over 61.5 µM; in the test on SNB-19 CNS it was over 100 µM; with K-562 leukemia, over 100 µM. The TGI in the test on HOP-62 NSCLC and with A549 NSCLC was over 100 µM each time.
Consider `COCc1c(CO)cnc(C)c1OC1OC(CO)C(O)C(O)C1O` (configuration not stated), for which the TGI in the test on NCI-H522 lung, with HCT-116 colon, with NCI-H460 lung, in the test on LOX IMVI melanoma, with SNB-19 CNS and in the test with K-562 leukemia was over 100 µM in each case. Besides, the TGI in the test on HOP-62 NSCLC and in the test on A549 NSCLC was over 100 µM throughout.
With `COc1cccc(NC(=O)C(C)(C)C)c1C=O`, the TGI in the test on NCI-H522 lung, with HCT-116 colon, in the test on NCI-H460 lung, with LOX IMVI melanoma, in the test with SNB-19 CNS and in the test with K-562 leukemia was over 100 µM in each case. For the same compound, the TGI with HOP-62 NSCLC and in the test with A549 NSCLC was over 100 µM in each case.
Turning to `CCCCCCCCCCCCCCCCOCC(CN(C)CCN(C)C)OCCCCCCCCCCCCCCCC` (configuration not stated), the TGI with NCI-H522 lung, in the test on HCT-116 colon, in the test on NCI-H460 lung, in the test with LOX IMVI melanoma, in the test with SNB-19 CNS and in the test with K-562 leukemia was over 100 µM throughout. Also, the TGI with HOP-62 NSCLC and in the test with A549 NSCLC was over 100 µM throughout.
As for `Cc1ccc(-n2c3nc(=O)n(C)c(=O)c-3nc3ccccc32)cc1`, the TGI with NCI-H522 lung is 32.6 µM; in the test with HCT-116 colon, 61.3 µM; in the test on NCI-H460 lung it was 17.3 µM; in the test with LOX IMVI melanoma, 43.7 µM; with SNB-19 CNS it was 33.5 µM; with K-562 leukemia it was 53.7 µM. For the same compound, the TGI is over 100 µM with HOP-62 NSCLC and 30.2 µM in the test on A549 NSCLC.
For `CC(=O)NC(CCCCN(Cc1ccccc1)C(=O)NCCCl)C(=O)NCc1ccccc1` (configuration not stated), the TGI in the test with NCI-H522 lung, with HCT-116 colon, in the test on NCI-H460 lung, with SNB-19 CNS, in the test with K-562 leukemia and in the test on HOP-62 NSCLC was over 100 µM throughout. Further, the TGI in the test on A549 NSCLC is over 100 µM.
For `O=C1OC(c2ccccc2)=N/C1=C\c1ccc2ccccc2c1`, the TGI in the test on NCI-H522 lung, in the test with HCT-116 colon, in the test with NCI-H460 lung, in the test with LOX IMVI melanoma, in the test with SNB-19 CNS and with K-562 leukemia was over 100 µM each time. The TGI in the test on A549 NSCLC is over 100 µM.
Consider `O=C(O)C1=C(C(=O)Nc2ccccc2)C2C=CC1C2` (configuration not stated), for which the TGI with HCT-116 colon, in the test on NCI-H460 lung, in the test with LOX IMVI melanoma, in the test on SNB-19 CNS, in the test with K-562 leukemia and with HOP-62 NSCLC was over 100 µM throughout. Further, in the test on A549 NSCLC, the TGI was over 100 µM.
